Test results: US20250122250A1, “AUXIN-DEGRON SYSTEM KIT AND USE THEREFOR” (Inter-University Research Institute Corporation Research …, priority 2021, published 2025)

Key:
AtTIR1 (F79G) [1] = target: T1, AtTIR1 (F79G) (Arabidopsis thaliana, UniProt Q570C0, D170E/F79G/M473L); type: in vivo; set-up: expressed in transfected cells; host or cells: transgenic C. elegans (CRISPR-Cas9 knock-in at the ttTi5605 locus; larvae, adults, embryos)
Protocol: (§1) Next, L1 larvae were grown on plates including ligands at different concentrations. The intensity of the AID*::GFP reporter of larvae (second generation) born from adults was monitored.
(§2) Furthermore, the efficacy of the AID2 system in adults was tested.

AtTIR1 (F79G) [2] = target: T1, AtTIR1 (F79G); experiment: AID*::GFP reporter degradation in embryos expressing AtTIR1 (F79G)::mRuby; type: in vivo; set-up: expressed in transfected cells
Protocol: Rapid removal of the target in the embryos is useful for analyzing a role of a protein in embryogenesis. Initially, 5-Ph-IAA was used to test the efficacy of protein removal in embryos. An egg-planting embryo expressing AtTIR1 (F79G)::mRuby and AID*::GFP was placed in a droplet of an M9 buffer including 50 μM 5-Ph-IAA, and then the reporter intensity was monitored (see FIG. 4A).
An egg-planting embryo expressing AtTIR1 (F79G)::mRuby and AID*::GFP was placed in a droplet of an M9 buffer including 50 μM 5-Ph-IAA-AM, and then the reporter intensity was monitored (see FIG. 4D).

AtTIR1 (F79G) [3] = target: T1, AtTIR1 (F79G); experiment: AID*::GFP reporter degradation in adult nematodes expressing AtTIR1 (F79G); type: in vivo; set-up: expressed in transfected cells; host or cells: transgenic C. elegans (CRISPR-Cas9 knock-in at the ttTi5605 locus; larvae, adults, embryos); conditions: 5 μM 5-Ph-IAA for 4 hours
Protocol: as §2

nematodes = experiment: number of progeny of L1 larvae grown in the presence of ligand; type: in vivo, C. elegans; conditions: 5 μM 5-Ph-IAA, L1 larvae expressing AID*::GFP with AtTIR1 (F79G)
Protocol: Next, in order to confirm that 5-Ph-IAA is safer than IAA against nematodes, L1 larvae expressing AID*::GFP were each grown with AtTIR1 or AtTIR1 (F79G) in the presence of 1 mM IAA or 5 μM 5-Ph-IAA.

AtTIR1 = target: T2, AtTIR1 (Arabidopsis thaliana, UniProt Q570C0, D170E/M473L); experiment: AID*::GFP reporter level in second generation larvae expressing AtTIR1, grown on ligand plates; type: in vivo; conditions: combined with AtTIR1, larvae treated for one generation; read-out: estimated DC50 value (ligand concentrations required for 50% degradation)
T2 construct: expressed in transfected cells; host or cells: transgenic C. elegans (larvae)
Protocol: as §1, §2

[4] = target: AID*::GFP (Arabidopsis thaliana)
[5] = target: AID*::GFP (Arabidopsis thaliana); remark: listed apart in the source
[6] = target: AID*::GFP (Arabidopsis thaliana); remark: listed apart in the source

T1 sequence (Q570C0 whole entry F79G/D170E/M473L): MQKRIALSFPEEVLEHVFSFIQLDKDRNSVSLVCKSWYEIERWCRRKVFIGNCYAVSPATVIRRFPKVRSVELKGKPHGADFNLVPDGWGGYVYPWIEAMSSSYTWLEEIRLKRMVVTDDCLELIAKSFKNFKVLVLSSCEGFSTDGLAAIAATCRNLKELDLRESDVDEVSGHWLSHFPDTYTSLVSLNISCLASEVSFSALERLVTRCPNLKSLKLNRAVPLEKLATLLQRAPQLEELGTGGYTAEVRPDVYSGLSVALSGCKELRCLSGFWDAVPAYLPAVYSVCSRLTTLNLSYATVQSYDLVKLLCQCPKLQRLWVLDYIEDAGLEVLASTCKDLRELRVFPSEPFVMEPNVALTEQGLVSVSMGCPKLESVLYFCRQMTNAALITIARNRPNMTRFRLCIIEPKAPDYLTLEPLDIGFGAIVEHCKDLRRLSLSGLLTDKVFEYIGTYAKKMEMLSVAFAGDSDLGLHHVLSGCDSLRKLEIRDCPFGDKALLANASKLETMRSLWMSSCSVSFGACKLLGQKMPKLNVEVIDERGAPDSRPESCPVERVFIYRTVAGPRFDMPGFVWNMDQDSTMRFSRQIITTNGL
T1 sequence (G5ECU1 whole entry, further chain): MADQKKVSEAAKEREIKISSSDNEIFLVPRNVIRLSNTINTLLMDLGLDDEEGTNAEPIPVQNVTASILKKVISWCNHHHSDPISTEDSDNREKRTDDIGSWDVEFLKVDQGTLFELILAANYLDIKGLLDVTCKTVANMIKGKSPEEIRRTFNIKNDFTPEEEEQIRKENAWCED
T1 sequence (P93830 71-114, further chain): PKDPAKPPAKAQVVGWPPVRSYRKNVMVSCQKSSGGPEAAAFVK
T2 sequence (G5ECU1 whole entry): as the sequence (G5ECU1 whole entry, further chain) above
T2 sequence (Q570C0 whole entry D170E/M473L): as the sequence (Q570C0 whole entry F79G/D170E/M473L) above, with G79F counted along it
T2 sequence (P93830 71-114, further chain): as the sequence (P93830 71-114, further chain) above

O=C(O)Cc1c[nH]c2ccc(-c3ccccc3)cc12 [5-Ph-IAA, 5-phenylindole-3-acetic acid]
AID*::GFP reporter expression in second generation larvae (AtTIR1 (F79G) [1]; 5.0 μM 5-Ph-IAA, among different ligand concentrations): lowest reporter expression | ligand concentration required, times lower than that of the AID system (IAA with AtTIR1) (AtTIR1 (F79G) [1]; long-term treatment, AID2 system vs AID system): about 1,300 times | DC50 (AtTIR1 (F79G) [1]; read-out: estimated DC50 value (ligand concentrations required for 50% degradation), combined with AtTIR1 (F79G), larvae treated for one generation): 0.0045 µM | time at which degradation of the reporter reached the maximum (AtTIR1 (F79G) [2]; 50 μM 5-Ph-IAA, embryos): 15 to 30 min | embryos with rapid decrease of fluorescence intensity (AtTIR1 (F79G) [2]; 50 μM in M9 buffer, 18/23 embryos): 78% | embryos with rapid decrease of fluorescence intensity (AtTIR1 (F79G) [2]; 100 μM, 16/20 embryos): 80% | AID*::GFP reporter in adults (AtTIR1 (F79G) [3]): a loss of the reporter was observed | number of progeny (nematodes): showed no difference

CC(=O)OCOC(=O)Cc1c[nH]c2ccc(-c3ccccc3)cc12 [5-Ph-IAA-AM, 5-phenylindole 3-acetic acid acetoxymethyl ester]
degradation of AID*::GFP reporter in embryos (AtTIR1 (F79G) [2]; 50 μM 5-Ph-IAA-AM in M9 buffer): rapid degradation in all embryos

O=C(O)Cc1c[nH]c2ccccc12 [IAA]
DC50 (AtTIR1): 59 µM

AtTIR1 (F79G)::mRuby
DC50 (ligand concentration required for 50% degradation) of 5-Ph-IAA, AID*::GFP reporter in larvae treated for one generation [4]: 0.0045 µM | half-life of the AID*::GFP reporter level in larvae treated with 5 µM 5-Ph-IAA [5]: 15.5 min

AtTIR1::mRuby
intensity of AID*::GFP in larvae, no ligand added (basal degradation) [6]: 73% | DC50 (ligand concentration required for 50% degradation) of IAA, AID*::GFP reporter in larvae treated for one generation [4]: 59 µM | half-life of the AID*::GFP reporter level in larvae treated with 1 mM IAA [5]: 16.8 min
